Laboratory results as given in patent US20190223483A1, “SENSORY MODIFIER COMPOUNDS” (CARGILL, INCORPORATED, priority 2017, published 2019).
“And” between values parts separate entries of the source, which are not always exact repeats. Identical values can stand only once.

Columns and labels:
[1] = Roundtable assessment of sweetness linger (scale 0 to 6); type: in vivo; set-up: key: 0 = none; 1 = trace/faint; 2 = slight; 3 = moderate; 4 = definite; 5 = strong; 6 = extreme
Experimental: In some aspects, the amount of sensory modifier compound effective to […] can be determined by panel testing with trained panelists. For example, sweetness linger can be determined by the following test: For other sweetness attributes, the solutions were tested by a panel of at least four individuals that are highly-trained in tasting steviol glycoside solutions. The highly-trained panelists used a roundtable methodology to assess each sweetness attribute. To test each solution, the highly-trained panelists dispensed approximately 2 mL of each solution into their own mouths by transfer pipet, dispersed the solution by moving their tongues, and recorded a value for the particular sweetness attribute being tested. Between tasting solutions, the panelists were able to cleanse their palates with water. For each sweetness attribute, the panelist agreed on a descriptive scale with relative intensities assigned for each sweetness attribute and then recorded the values for each sweetness attribute against this. For example, this roundtable assessment of sweetness linger assigned a scale of 0 to 6 with a score of 0 indicating no sweetness linger and a score of 6 indicating extreme sweetness linger. Roundtable assessment of sweetness linger assigned a scale of 0 to 6 with a score of 0 indicating no sweetness linger and a score of 6 indicating extreme sweetness linger (0=none, 1=trace, 2=slight, 3=moderate, 4=definite, 5=strong, 6=extreme). Roundtable assessment of rounded assigned a scale of 0 to 3 with a score of 0 indicating spikey and a score of 3 indicating desirable rounded (0=none, 1=mostly spikey, some rounded, 2=mostly rounded, some spikey, 3=rounded). Roundtable assessment of mouthfeel assigned a scale of 0 to 2 with a score of 0 indicating water and a score of 2 indicating syrupy (0=water, 1=sucrosey, 2=syrupy). Roundtable assessment of bitterness assigned a scale of 0 to 6 with a score of 0 indicating no bitterness and a score of 6 indicating extreme sweetness linger (0=none, 1=trace, 2=slight, 3=moderate, 4=definite, 5=strong, 6=extreme). Roundtable assessment of off tastes assigned a scale of 0 to 6 with a score of 0 indicating no bitterness and a score of 6 indicating extreme off tastes (0=none, 1=trace, 2=slight, 3=moderate, 4=definite, 5=strong, 6=extreme). […] Roundtable assessment of botanical notes assigned a scale of 0 to 5 with a score of 0 indicating no botanical notes and a score of 5 indicating strong (0=none, 1=trace, 2=slight, 3=moderate, 4=definite, 5=strong). Exemplary tests are recorded below in Example 1.
For other sweetness attributes, the solutions were tested by a panel of at least four individuals that are highly-trained in tasting steviol glycoside solutions. The highly-trained panelists used a roundtable methodology to assess each sweetness attribute. To test each solution, the highly-trained panelists dispensed approximately 2 mL of each solution into their own mouths by transfer pipet, dispersed the solution by moving their tongues, and recorded a value for the particular sweetness attribute being tested. Between tasting solutions, the panelists were able to cleanse their palates with water. For each sweetness attribute, the panelist agreed on a descriptive scale with relative intensities assigned for each sweetness attribute and then recorded the values for each sweetness attribute against this. For example, this roundtable assessment of sweetness linger assigned a scale of 0 to 6 with a score of 0 indicating no sweetness linger and a score of 6 indicating extreme sweetness linger. Roundtable assessment of sweetness linger assigned a scale of 0 to 6 with a score of 0 indicating no sweetness linger and a score of 6 indicating extreme sweetness linger (0=none, 1=trace, 2=slight, 3=moderate, 4=definite, 5=strong, 6=extreme). […]

[2] = Roundtable assessment of botanical notes (scale 0 to 5); type: in vivo; set-up: key: 0 = none; 1 = trace/faint; 2 = slight; 3 = moderate; 4 = definite; 5 = strong; 6 = extreme
Experimental: For other sweetness attributes, the solutions were tested by a panel of at least four individuals that are highly-trained in tasting steviol glycoside solutions. The highly-trained panelists used a roundtable methodology to assess each sweetness attribute. To test each solution, the highly-trained panelists dispensed approximately 2 mL of each solution into their own mouths by transfer pipet, dispersed the solution by moving their tongues, and recorded a value for the particular sweetness attribute being tested. Between tasting solutions, the panelists were able to cleanse their palates with water. For each sweetness attribute, the panelist agreed on a descriptive scale with relative intensities assigned for each sweetness attribute and then recorded the values for each sweetness attribute against this. For example, this roundtable assessment of sweetness linger assigned a scale of 0 to 6 with a score of 0 indicating no sweetness linger and a score of 6 indicating extreme sweetness linger. Roundtable assessment of sweetness linger assigned a scale of 0 to 6 with a score of 0 indicating no sweetness linger and a score of 6 indicating extreme sweetness linger (0=none, 1=trace, 2=slight, 3=moderate, 4=definite, 5=strong, 6=extreme). Roundtable assessment of rounded assigned a scale of 0 to 3 with a score of 0 indicating spikey and a score of 3 indicating desirable rounded (0=none, 1=mostly spikey, some rounded, 2=mostly rounded, some spikey, 3=rounded). Roundtable assessment of mouthfeel assigned a scale of 0 to 2 with a score of 0 indicating water and a score of 2 indicating syrupy (0=water, 1=sucrosey, 2=syrupy). Roundtable assessment of bitterness assigned a scale of 0 to 6 with a score of 0 indicating no bitterness and a score of 6 indicating extreme sweetness linger (0=none, 1=trace, 2=slight, 3=moderate, 4=definite, 5=strong, 6=extreme). Roundtable assessment of off tastes assigned a scale of 0 to 6 with a score of 0 indicating no bitterness and a score of 6 indicating extreme off tastes (0=none, 1=trace, 2=slight, 3=moderate, 4=definite, 5=strong, 6=extreme).
Roundtable assessment of botanical notes assigned a scale of 0 to 5 with a score of 0 indicating no botanical notes and a score of 5 indicating strong (0=none, 1=trace, 2=slight, 3=moderate, 4=definite, 5=strong).
A series of assays were carried out to characterize botanical notes of sensory modifier compound (0=none, 1=trace/faint, 2=slight, 3=moderate, 4=definite, 5=strong) in steviol glycoside compositions using the roundtable methodology described in Example 1. […] Solutions of steviol glycosides and sensory modifier compound were prepared at increasing ratios of sensory modifier to steviol glycoside by weight. […] The concentration of steviol glycosides was 700 ppm in each solution. The solutions were tested for botanical notes.

[3] = steviol glycoside 700 ppm + yerba mate mono/dicaffeoylquinic acids 270 ppm
[4] = steviol glycoside 700 ppm + yerba mate mono/dicaffeoylquinic acids 540 ppm
[5] = steviol glycoside 700 ppm + yerba mate mono/dicaffeoylquinic acids 810 ppm
[6] = steviol glycoside 700 ppm, sensory modifier 0 ppm
[7] = RebM 700 ppm + cichoric acid (tartaric backbone) 514 ppm
[8] = RebM 700 ppm + cichoric acid (tartaric backbone) 772 ppm
[9] = RebM 700 ppm + cichoric acid (tartaric backbone) […]
[10] = RebM 700 ppm + rosmarinic acid 195 ppm
[11] = RebM 700 ppm + rosmarinic acid 391 ppm
[12] = RebM 700 ppm + rosmarinic acid 586 ppm
[13] = steviol glycoside 700 ppm + yerba mate mono/dicaffeoylquinic acids 236 ppm
[14] = steviol glycoside 700 ppm + yerba mate mono/dicaffeoylquinic acids 300 ppm
[15] = steviol glycoside 700 ppm + yerba mate mono/dicaffeoylquinic acids 400 ppm
[16] = steviol glycoside 700 ppm + yerba mate mono/dicaffeoylquinic acids 472 ppm
[17] = steviol glycoside 700 ppm + yerba mate mono/dicaffeoylquinic acids 500 ppm
[18] = steviol glycoside 700 ppm + yerba mate mono/dicaffeoylquinic acids 600 ppm
[19] = steviol glycoside 700 ppm + yerba mate mono/dicaffeoylquinic acids 700 ppm
[20] = steviol glycoside 700 ppm + yerba mate mono/dicaffeoylquinic acids 708 ppm
[21] = steviol glycoside 700 ppm + yerba mate mono/dicaffeoylquinic acids 800 ppm
[22] = steviol glycoside 700 ppm + yerba mate mono/dicaffeoylquinic acids 630 ppm
[23] = steviol glycoside 700 ppm + yerba mate mono/dicaffeoylquinic acids 946 ppm
[24] = steviol glycoside 700 ppm + yerba mate mono/dicaffeoylquinic acids […]

`C=C1C[C@@]23CC[C@H]4[C@@](C)(CCC[C@@]4(C)C(=O)O[C@@H]4O[C@H](CO)[C@@H](O)[C@H](O)[C@H]4O[C@@H]4O[C@H](CO)[C@@H](O)[C@H](O)[C@H]4O)[C@@H]2CC[C@]1(O[C@@H]1O[C@H](CO)[C@@H](O)[C@H](O[C@@H]2O[C@H](CO)[C@@H](O)[C@H](O)[C@H]2O)[C@H]1O[C@@H]1O[C@H](CO)[C@@H](O)[C@H](O)[C@H]1O)C3` [RebD, Rebaudioside D] showed a Sweetness linger [1, 3] of 3, a Sweetness linger [1, 4] of 2 and a Sweetness linger [1, 5] of 1. For the same compound, the Sweetness linger ([1]; steviol glycoside 700 ppm, about 200 ppm sensory modifier) was “reduced to commercially palatable levels”, the Sweetness linger [1, 6] was 3 and the Botanical notes ([2]; Reb D 700 ppm, 0 ppm to about 500 ppm sensory modifier) was “no perceptible botanical notes”. The Botanical notes ([2]; Reb D 700 ppm, about 800 ppm sensory modifier) was “slight”, the Botanical notes [2, 3] was 0 and the Botanical notes [2, 4] was 0. For the same compound, the Botanical notes [2, 5] was 2 and the Botanical notes [2, 6] was “Not observed”.
For `C=C1C[C@@]23CC[C@H]4[C@@](C)(CCC[C@@]4(C)C(=O)O[C@@H]4O[C@H](CO)[C@@H](O)[C@H](O[C@@H]5O[C@H](CO)[C@@H](O)[C@H](O)[C@H]5O)[C@H]4O[C@@H]4O[C@H](CO)[C@@H](O)[C@H](O)[C@H]4O)[C@@H]2CC[C@]1(O[C@@H]1O[C@H](CO)[C@@H](O)[C@H](O[C@@H]2O[C@H](CO)[C@@H](O)[C@H](O)[C@H]2O)[C@H]1O[C@@H]1O[C@H](CO)[C@@H](O)[C@H](O)[C@H]1O)C3` [RebM, Rebaudioside M], the Sweetness linger ([1]; 1:1 molar ratio with tartaric acid backbone modifier) was “no perceptible linger”, the Sweetness linger ([1]; 1:2 molar ratio with quinic acid backbone modifier) was “no perceptible linger” and the Sweetness linger [1, 7] was 0. It also gave a Sweetness linger [1, 8] of 0, a Sweetness linger [1, 9] of 0 and a Sweetness linger [1, 10] of 6. For the same compound, the Sweetness linger [1, 11] was 3, the Sweetness linger [1, 12] was 2 and the Sweetness linger ([1]; RebM 700 ppm, above about 300 ppm quinic backbone modifier) was “not perceptible”. For the same compound, the Sweetness linger ([1]; RebM 700 ppm, at or before about 200 ppm quinic backbone modifier) was “slight”, the Sweetness linger [1, 13] was 2 and the Sweetness linger [1, 14] was 2. It also gave a Sweetness linger [1, 15] of 0, a Sweetness linger [1, 16] of 0 and a Sweetness linger [1, 17] of 0. For the same compound, the Sweetness linger [1, 18] was 0, the Sweetness linger [1, 19] was 0 and 2 and the Sweetness linger [1, 20] was 0. For the same compound, the Sweetness linger [1, 21] was 0, the Sweetness linger [1, 6] was 6 and the Botanical notes [2, 7] was 4. It also gave a Botanical notes [2, 8] of 5, a Botanical notes [2, 9] of 3 and a Botanical notes [2, 10] of 2. For the same compound, the Botanical notes [2, 11] was 3, the Botanical notes [2, 12] was 2 and the Botanical notes ([2]; RebM 700 ppm, quinic backbone modifier between 0 ppm and about 400 ppm) was “imperceptible”. For the same compound, the Botanical notes [2, 13] was “Not Observed”, the Botanical notes [2, 14] was 0 and the Botanical notes [2, 15] was 0. For the same compound, the Botanical notes [2, 16] was 1, the Botanical notes [2, 17] was 0 and the Botanical notes [2, 18] was 2. It also gave a Botanical notes [2, 19] of 2, a Botanical notes [2, 20] of 2 and a Botanical notes [2, 21] of 2. For the same compound, the Botanical notes [2, 6] was 0.
For `C=C1C[C@@]23CC[C@H]4[C@@](C)(CCC[C@@]4(C)C(=O)O[C@@H]4O[C@H](CO)[C@@H](O)[C@H](O)[C@H]4O)[C@@H]2CC[C@]1(O[C@@H]1O[C@H](CO)[C@@H](O)[C@H](O[C@@H]2O[C@H](CO)[C@@H](O)[C@H](O)[C@H]2O)[C@H]1O[C@@H]1O[C@H](CO)[C@@H](O)[C@H](O)[C@H]1O)C3` [RebA, Rebaudioside A], the Sweetness linger [1, 22] was “Not observed”, the Sweetness linger [1, 23] was “Not observed” and the Sweetness linger [1, 24] was “Not observed”. The Sweetness linger [1, 6] was “Not observed”, the Botanical notes [2, 22] was 1 and the Botanical notes [2, 23] was 3. The Botanical notes [2, 24] was “Not observed” and the Botanical notes [2, 6] was “Not observed”.
